Test [1] deals with AD-aptamer subunits L1F + L2Q (DNA, aptamer) ATAACGCATTTTGTTATGCGGAGGAAGGTAT/AATGCGTTATTAGAATT/ATACCTGGGGGAGTATTAACATGTTCCATCTT/TTAAATCAAGATGGAAC
Description: not given in the source (Figure S2).

Test [2] has as its system AA' (DNA, aptamer) GTCCTCAGCGATTACTATGCGGAGGAAGGTAT/ATACCTGGGGGAGTATTAGTACACCCATGTTTCAGT
Description: DNAzyme substrate cleavage fluorescence. Particulars: Mg2+; qualitative; AD 4-5 mM with ADA present.

Test [3] concerns BA' (DNA, aptamer) CTGTTCAGCGATTACTATGCGGAGGAAGGTAT/ATACCTGGGGGAGTATTAGTACACCCATGTTTCAGT
Description: DNAzyme substrate cleavage fluorescence. Particulars: Mg2+; qualitative; AD 4-5 mM with ADA present.

Test [4] relates to BB' (DNA, aptamer) CTGTTCAGCGATTACTATGCGGAGGAAGGTAT/ATACCTGGGGGAGTATTAGTACACCCATGTTCCTGA
Nature of the test: DNAzyme substrate cleavage fluorescence. Particulars: Mg2+; qualitative; AD 4-5 mM with ADA present.

Test [5] relates to AD-aptamer subunits L1F + L2Q (DNA, aptamer) ATAACGCATTTTGTTATGCGGAGGAAGGTAT/AATGCGTTATTAGAATT/ATACCTGGGGGAGTATTAACATGTTCCATCTT/TTAAATCAAGATGGAAC
Nature of the test: not stated in material (Figure S4).

In test [6] the test system is D1/D2 (AD-stabilized Mg2+-dependent DNAzyme; same sequences as constituent AB') (DNA, aptamer) GTCCTCAGCGATTACTATGCGGAGGAAGGTAT/ATACCTGGGGGAGTATTAGTACACCCATGTTCCTGA
Description: DNAzyme substrate cleavage fluorescence. Particulars: qualitative, AD 3-5 mM with ADA present.

The mark [7] stands for this setting: highest concentration not in material.

Broadly, the Kd is a measure of binding affinity in units of concentration.

Turning to `Cc1cn([C@H]2C[C@H](O)[C@@H](COP(=O)(O)OP(=O)(O)OP(=O)(O)O)O2)c(=O)[nH]c1=O`, the binding result in test [1] (setting [7]) is “no”.
Same read-out and setting: next, `Nc1ccn([C@@H]2O[C@H](COP(=O)(O)OP(=O)(O)OP(=O)(O)O)[C@@H](O)[C@H]2O)c(=O)n1`: “no”.
With `Nc1nc2c(ncn2[C@@H]2O[C@H](COP(=O)(O)OP(=O)(O)OP(=O)(O)O)[C@@H](O)[C@H]2O)c(=O)[nH]1`, in test [1] (setting [7]), the binding entry is “no”.
`Nc1ncnc2c1ncn2[C@@H]1O[C@H](CO)[C@@H](O)[C@H]1O`: the binding entry in test [2], in test [3], in test [4] and in test [6] was “yes” each time. The Kd in test [5] (not perturbed by ADA or inosine) was 11.8 ± 2.3 µM.
With `Nc1ncnc2c1ncn2[C@@H]1O[C@H](COP(=O)(O)O)[C@@H](O)[C@H]1O`, the binding entry in test [1] (qualitative) is recorded as “yes”.
On the same count and under the same terms, the same measure for `Nc1ncnc2c1ncn2[C@@H]1O[C@H](COP(=O)(O)OP(=O)(O)O)[C@@H](O)[C@H]1O`: “yes”; for `Nc1ncnc2c1ncn2[C@@H]1O[C@H](COP(=O)(O)OP(=O)(O)OP(=O)(O)O)[C@@H](O)[C@H]1O`: “yes”.
Take `O=c1[nH]cnc2c1ncn2[C@@H]1O[C@H](CO)[C@@H](O)[C@H]1O`: in test [5] (setting [7]), the binding entry was “no”.
As to `O=c1ccn([C@@H]2O[C@H](COP(=O)(O)OP(=O)(O)OP(=O)(O)O)[C@@H](O)[C@H]2O)c(=O)[nH]1`, the binding entry in test [1] (setting [7]) is “no”.

The values above are taken from publication PMC12147132 (2025).
